Test results published in US20160002267A1, “BENZYL-SUBSTITUTED PYRAZOLOPYRIDINES AND USE THEREOF” (BAYER PHARMA AKTIENGESELLSCHAFT, priority 2013, published 2016).

Target: T1, guanylate cyclase (Rattus norvegicus, UniProt P19686+P20595)
T1 construct: expressed in transfected cells; host or cells: recombinant reporter cell line
T1 sequence (P20595 1-619): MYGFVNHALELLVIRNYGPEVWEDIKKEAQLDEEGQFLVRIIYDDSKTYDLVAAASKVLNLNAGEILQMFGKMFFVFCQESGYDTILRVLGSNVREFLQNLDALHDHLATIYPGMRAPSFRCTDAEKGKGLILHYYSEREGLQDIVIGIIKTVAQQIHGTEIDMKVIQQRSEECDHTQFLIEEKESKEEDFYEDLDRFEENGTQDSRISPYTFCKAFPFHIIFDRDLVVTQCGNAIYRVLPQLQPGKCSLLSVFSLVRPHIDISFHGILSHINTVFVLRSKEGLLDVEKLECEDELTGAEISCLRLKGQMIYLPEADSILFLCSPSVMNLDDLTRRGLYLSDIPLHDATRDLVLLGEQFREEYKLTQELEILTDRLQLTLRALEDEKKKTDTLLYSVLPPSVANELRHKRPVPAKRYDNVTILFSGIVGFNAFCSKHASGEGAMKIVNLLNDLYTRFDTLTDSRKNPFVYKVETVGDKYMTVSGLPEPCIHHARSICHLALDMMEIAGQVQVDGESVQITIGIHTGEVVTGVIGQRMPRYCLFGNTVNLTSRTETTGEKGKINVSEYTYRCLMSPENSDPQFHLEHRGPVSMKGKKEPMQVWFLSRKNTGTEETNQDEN
T1 sequence (P19686 1-690): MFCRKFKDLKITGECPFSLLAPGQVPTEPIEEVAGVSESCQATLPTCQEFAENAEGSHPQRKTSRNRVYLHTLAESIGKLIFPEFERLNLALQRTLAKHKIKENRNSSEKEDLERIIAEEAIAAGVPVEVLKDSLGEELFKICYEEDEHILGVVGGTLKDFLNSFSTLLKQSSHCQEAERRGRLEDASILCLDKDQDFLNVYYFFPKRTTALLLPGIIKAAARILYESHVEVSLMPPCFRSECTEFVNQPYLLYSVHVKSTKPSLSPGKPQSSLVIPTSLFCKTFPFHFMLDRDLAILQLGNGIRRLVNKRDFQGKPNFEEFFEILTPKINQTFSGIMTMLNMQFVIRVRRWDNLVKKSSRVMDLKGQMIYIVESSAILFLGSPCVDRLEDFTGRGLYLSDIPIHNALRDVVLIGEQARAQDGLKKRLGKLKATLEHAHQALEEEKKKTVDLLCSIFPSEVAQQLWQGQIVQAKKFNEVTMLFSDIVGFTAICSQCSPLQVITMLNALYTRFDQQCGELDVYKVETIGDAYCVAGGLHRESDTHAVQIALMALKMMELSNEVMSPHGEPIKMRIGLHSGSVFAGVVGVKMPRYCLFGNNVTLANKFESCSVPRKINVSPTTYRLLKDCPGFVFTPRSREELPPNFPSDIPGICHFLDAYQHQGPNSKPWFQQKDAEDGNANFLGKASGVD
Assay: Effect on a recombinant guanylate cyclase reporter cell line
Assay type: cell-based
Method: The cellular activity of the compounds according to the invention is determined using a recombinant guanylate cyclase reporter cell line, as described in F. Wunder et al., Anal. Biochem. 339, 104-112 (2005).

CC1(C(F)(F)F)C(=O)Nc2nc(-c3nn(Cc4ccccc4F)c4ncc(F)cc34)nc(NCCC(F)(F)F)c21 (single isomer, unassigned) [Example 1-2, 2-[5-Fluoro-1-(2-fluorobenzyl)-1H-pyrazolo[3,4-b]pyridin-3-yl]-5-methyl-5-(trifluoromethyl)-4-[(3,3,3-trifluoropropyl)amino]-5,7-dihydro-6H-pyrrolo[2,3-d]pyrimidin-6-one]
MEC (minimum effective concentration): 0.3 µM
